This note sets out measurements from patent publication US20240300932A1, “N-PHENYLIMINE DERIVATIVE AND PREPARATION METHOD AND USE THEREOF” (Guizhou University, priority 2023, published 2024).

In general, melting point refers to the temperature of the solid-liquid transition.

In one data set the test system is Trifoliumre pensL. The experiment in a line: Post-emergence herbicidal activity test (stem and leaf spray, pot culture). It is filed as in vivo. To be noted: 3 weeks after spraying. In short, it runs like this: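 Rates of 10, 5 and 2.5 g/mu were applied in a single spray-tower treatment to 2–3-leaf plants, thinned to 10 per pot. Formulation: acetone solution, Tween 80, 1.5 L/ha methyl oleate synergist. Weed response assessed after 3 further greenhouse weeks; mean of three experiments.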

The next data set has as its system Amaranthus retroflexus. The description is as above. The class given is in vivo. The settings on record: 3 weeks after spraying. A digest of the protocol:
(§1)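 Greenhouse pot-grown weeds (loam, pH 7) sprayed post-emergence at 2- to 3-leaf stage with acetone/Tween 80 formulation plus 1.5 liters/ha methyl oleate, at 10, 5 and 2.5 g/mu. Fresh-weight growth control rated 3 weeks later on 0–5 grade scale.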

For another data set, the system named is Portulaca oleracea. The description is as above. It is filed as in vivo. To be noted: 3 weeks after spraying. A digest of the protocol:
as §1

Another data set has as its system Echinochloa crusgalli. Described as above. The class given is in vivo. The settings on record: 3 weeks after spraying. A digest of the protocol:
as §1

The next data set deals with Setaria viridis. The description is as above. To be noted: 3 weeks after spraying. The class given is in vivo. A digest of the protocol: as §1
A further data set deals with Abutilon theophrasti. Described as above. To be noted: 3 weeks after spraying. It is filed as in vivo. In short, it runs like this: as §1

For `O=C1C2=C(CCCC2)C(=O)N1c1cc(OCc2nnc(-c3cccc(Cl)c3)o2)c(Cl)cc1F` [Compound B2, 2-(4-chloro-5-((5-(3-chlorophenyl)-1,3,4-oxadiazole-2-yl)methoxy)-2-fluorophenyl)-4,5,6,7-tetrahydro-1H-isoindole-1,3(2H)-dione], the melting point was 158 to 162 °C. Also, in the data set with Trifoliumre pensL. (dosage 2.5 g/mu), the “Post-emergence herbicidal activity, Trifoliumre pensL. (grade)” value is on record as 5 (Grade 5: the growth control rate is greater than or equal to 85%). Besides, the “Post-emergence herbicidal activity, Trifoliumre pensL. (grade)” value in the data set with Trifoliumre pensL. (dosage 5 g/mu) is listed as 5 (Grade 5: the growth control rate is greater than or equal to 85%). For the same compound, the “Post-emergence herbicidal activity, Trifoliumre pensL. (grade)” value in the data set on Trifoliumre pensL. (dosage 10 g/mu) is 5 (Grade 5: the growth control rate is greater than or equal to 85%). Also, the “Post-emergence herbicidal activity, A. retroflexus (grade)” value with Amaranthus retroflexus (dosage 2.5 g/mu) was 5 (Grade 5: the growth control rate is greater than or equal to 85%). For the same compound, the “Post-emergence herbicidal activity, A. retroflexus (grade)” value in the data set with Amaranthus retroflexus (dosage 5 g/mu) is 5 (Grade 5: the growth control rate is greater than or equal to 85%). Also, the “Post-emergence herbicidal activity, A. retroflexus (grade)” value in the data set with Amaranthus retroflexus (dosage 10 g/mu) is 5 (Grade 5: the growth control rate is greater than or equal to 85%). The “Post-emergence herbicidal activity, P. oleracea (grade)” value in the data set on Portulaca oleracea (dosage 2.5 g/mu) is 5 (Grade 5: the growth control rate is greater than or equal to 85%). The “Post-emergence herbicidal activity, P. oleracea (grade)” value in the data set on Portulaca oleracea (dosage 5 g/mu) was 5 (Grade 5: the growth control rate is greater than or equal to 85%). Also, the “Post-emergence herbicidal activity, P. oleracea (grade)” value with Portulaca oleracea (dosage 10 g/mu) is given as 5 (Grade 5: the growth control rate is greater than or equal to 85%). For the same compound, in the data set with Echinochloa crusgalli (dosage 2.5 g/mu), the “Post-emergence herbicidal activity, E. crusgalli (grade)” value is 1 (Grade 1: the growth control rate is greater than or equal to 5% and less than 20%). The “Post-emergence herbicidal activity, E. crusgalli (grade)” value in the data set with Echinochloa crusgalli (dosage 5 g/mu) was 2 (Grade 2: the growth control rate is greater than or equal to 20% and less than 40%). Moreover, the “Post-emergence herbicidal activity, E. crusgalli (grade)” value with Echinochloa crusgalli (dosage 10 g/mu) is 3 (Grade 3: the growth control rate is greater than or equal to 40% and less than 60%). In the data set with Setaria viridis (dosage 2.5 g/mu), the “Post-emergence herbicidal activity, S. viridis (grade)” value was 2 (Grade 2: the growth control rate is greater than or equal to 20% and less than 40%). For the same compound, the “Post-emergence herbicidal activity, S. viridis (grade)” value in the data set on Setaria viridis (dosage 5 g/mu) is 3 (Grade 3: the growth control rate is greater than or equal to 40% and less than 60%). Moreover, the “Post-emergence herbicidal activity, S. viridis (grade)” value in the data set with Setaria viridis (dosage 10 g/mu) was 4 (Grade 4: the growth control rate is greater than or equal to 60% and less than 85%). The “Post-emergence herbicidal activity, A. theophrasti (grade)” value in the data set with Abutilon theophrasti (dosage 2.5 g/mu) is reported as 5 (Grade 5: the growth control rate is greater than or equal to 85%). Also, the “Post-emergence herbicidal activity, A. theophrasti (grade)” value in the data set with Abutilon theophrasti (dosage 5 g/mu) is 5 (Grade 5: the growth control rate is greater than or equal to 85%). The “Post-emergence herbicidal activity, A. theophrasti (grade)” value with Abutilon theophrasti (dosage 10 g/mu) was 5 (Grade 5: the growth control rate is greater than or equal to 85%).

Compound `Cc1ccccc1-c1nnc(COc2cc(N3C(=O)C4=C(CCCC4)C3=O)c(F)cc2Cl)o1` [Compound B9, 2-(4-chloro-2-fluoro-5-((5-(2-tolyl)-1,3,4-oxadiazole-2-yl)methoxy)phenyl)-4,5,6,7-tetrahydro-1H-isoindole-1,3(2H)-dione] yielded a melting point of 144 to 147 °C. Besides, the “Post-emergence herbicidal activity, Trifoliumre pensL. (grade)” value with Trifoliumre pensL. (dosage 2.5 g/mu) was 5 (Grade 5: the growth control rate is greater than or equal to 85%). In addition, the “Post-emergence herbicidal activity, Trifoliumre pensL. (grade)” value with Trifoliumre pensL. (dosage 5 g/mu) is reported as 5 (Grade 5: the growth control rate is greater than or equal to 85%). In addition, in the data set with Trifoliumre pensL. (dosage 10 g/mu), the “Post-emergence herbicidal activity, Trifoliumre pensL. (grade)” value was 5 (Grade 5: the growth control rate is greater than or equal to 85%). In addition, the “Post-emergence herbicidal activity, A. retroflexus (grade)” value in the data set on Amaranthus retroflexus (dosage 2.5 g/mu) is 5 (Grade 5: the growth control rate is greater than or equal to 85%). The “Post-emergence herbicidal activity, A. retroflexus (grade)” value with Amaranthus retroflexus (dosage 5 g/mu) is recorded as 5 (Grade 5: the growth control rate is greater than or equal to 85%). The “Post-emergence herbicidal activity, A. retroflexus (grade)” value with Amaranthus retroflexus (dosage 10 g/mu) is 5 (Grade 5: the growth control rate is greater than or equal to 85%). In addition, in the data set with Portulaca oleracea (dosage 2.5 g/mu), the “Post-emergence herbicidal activity, P. oleracea (grade)” value is reported as 5 (Grade 5: the growth control rate is greater than or equal to 85%). Besides, the “Post-emergence herbicidal activity, P. oleracea (grade)” value with Portulaca oleracea (dosage 5 g/mu) is on record as 5 (Grade 5: the growth control rate is greater than or equal to 85%). Besides, in the data set with Portulaca oleracea (dosage 10 g/mu), the “Post-emergence herbicidal activity, P. oleracea (grade)” value is listed as 5 (Grade 5: the growth control rate is greater than or equal to 85%). Besides, the “Post-emergence herbicidal activity, E. crusgalli (grade)” value with Echinochloa crusgalli (dosage 2.5 g/mu) is 1 (Grade 1: the growth control rate is greater than or equal to 5% and less than 20%). The “Post-emergence herbicidal activity, E. crusgalli (grade)” value in the data set on Echinochloa crusgalli (dosage 5 g/mu) was 2 (Grade 2: the growth control rate is greater than or equal to 20% and less than 40%). In the data set with Echinochloa crusgalli (dosage 10 g/mu), the “Post-emergence herbicidal activity, E. crusgalli (grade)” value was 3 (Grade 3: the growth control rate is greater than or equal to 40% and less than 60%). In the data set with Setaria viridis (dosage 2.5 g/mu), the “Post-emergence herbicidal activity, S. viridis (grade)” value was 2 (Grade 2: the growth control rate is greater than or equal to 20% and less than 40%). In addition, the “Post-emergence herbicidal activity, S. viridis (grade)” value in the data set on Setaria viridis (dosage 5 g/mu) was 3 (Grade 3: the growth control rate is greater than or equal to 40% and less than 60%). For the same compound, in the data set on Setaria viridis (dosage 10 g/mu), the “Post-emergence herbicidal activity, S. viridis (grade)” value was 4 (Grade 4: the growth control rate is greater than or equal to 60% and less than 85%). In addition, the “Post-emergence herbicidal activity, A. theophrasti (grade)” value in the data set with Abutilon theophrasti (dosage 2.5 g/mu) was 5 (Grade 5: the growth control rate is greater than or equal to 85%). Further, in the data set with Abutilon theophrasti (dosage 5 g/mu), the “Post-emergence herbicidal activity, A. theophrasti (grade)” value is 5 (Grade 5: the growth control rate is greater than or equal to 85%). The “Post-emergence herbicidal activity, A. theophrasti (grade)” value with Abutilon theophrasti (dosage 10 g/mu) was 5 (Grade 5: the growth control rate is greater than or equal to 85%).
